Data as given in patent US20170260285A1, “METHODS FOR TREATING CANCER” (UNIVERSITY OF IOWA RESEARCH FOUNDATION, priority 2014, published 2017).
Entries after “also recorded” stand apart in the source; their conditions may differ. Like-named read-outs stand apart in the source and are kept apart here.

Legend:
[1] = system: genes related to inflammation and innate immunity; settings: one other study (ref. 25); cited from earlier work
Cal-27 HNSCC cells [2] = assay: IL-1α release by ELISA in Cal-27 cells; format: cell-based, human; settings: erlotinib 5 μM, indicated time points, ELISA
Description: (§1) Erlotinib (ERL; Tarceva) and anakinra (ANA; Kineret) were obtained from the inpatient pharmacy at the University of Iowa Hospitals and Clinics. Drugs were added to cells at final concentrations of 5 μM ERL and 10 ng/mL or 50 ng/mL ANA. Human IgG and […] (DMSO) were used as controls and were obtained from Sigma Aldrich. Human IL-1α, IL-1β, and IL-18Rα neutralizing antibodies were obtained from R&D Systems and were used at a concentration of 0.5 μg/mL. Recombinant human IL-1α was obtained from Life Technologies and administered at a concentration of 1 ng/mL. Ac-Y-VAD-cho, a caspase-1 inhibitor (CalBioChem), was suspended in DMSO and added at a concentration of […], a pan-caspase inhibitor (Promega) was diluted in DMSO and added at a concentration of 20 μM. TLR agonists were used at the following concentrations: Pam3CSK4 (200ng/mL), FSL-1 (100 ng/mL), Poly I:C (20 μg/mL), LPS (200 ng/mL), Flagellin (200 ng/mL), Gardiquimod (1 μg/mL), CL075 (1 μg/mL), and E. coli DNA (1 μg/mL). All TLR agonists were obtained from InvivoGen. The required volume of each drug was added directly to complete cell culture media on cells to achieve the indicated final concentrations.
(§2) Levels of IL-6, IL-1α and IL-1β of treated cells were determined by ELISA. The culture media of the treated cells were harvested and each cytokine was detected according to the manufacturer's protocol using the Human Quantikine ELISA Kits (R&D Systems, Minneapolis, Minn.).
(§3) Erlotinib (ERL; Tarceva), anakinra (ANA; Kineret) and N-acetyl cysteine (NAC; Acetadote) were obtained from the inpatient pharmacy at the University of Iowa Hospitals and Clinics. Drugs were added to cells at final concentrations of 5 μM ERL, 10 ng/mL or 50 ng/mL ANA and 20 mM NAC. Human IgG and […] (DMSO) were used as controls and were obtained from Sigma Aldrich. Pegylated catalase (CAT; Sigma Aldrich) was used at a final concentration of 100 U/mL. Human IL-1α, IL-1β, and IL-18Ra neutralizing antibodies were obtained from R&D Systems and were used at a concentration of 0.5 μg/mL. Recombinant human IL-1α was obtained from Life Technologies and administered at a concentration of 1 ng/mL. Ac-Y-VAD-cho (CalBioChem) was suspended in DMSO and used at 5 μM. Z-VAD-fmk (Promega) was diluted in DMSO and used at 20 μM. TLR agonists were used at the following concentrations: Pam3CSK4 (200 ng/mL), FSL-1 (100 ng/mL), Poly I:C (20 μg/mL), LPS (200 ng/mL), Flagellin (200 ng/mL), Gardiquimod (1 μg/mL), CL075 (1 μg/mL), and E. coli DNA (1 μg/mL). All TLR agonists were obtained from InvivoGen. The required volume of each drug was added directly to complete cell culture media on cells to achieve the indicated final concentrations.
(§4) Levels of IL-6, IL-1α and IL-1β of treated cells were determined by ELISA. The culture media of the treated cells were harvested and each cytokine was detected according to the manufacturer's protocol using Human Quantikine ELISA Kits (R&D Systems, Minneapolis, Minn.).

SQ20B HNSCC cells [3] = assay: IL-6 secretion by ELISA in SQ20B cells; format: cell-based, human; settings: erlotinib 5 μM, 48 h vs DMSO, ELISA
Excerpt: (§5) Cal-27 and FaDu human head and neck squamous carcinoma (HNSCC) cells were obtained from the American Type Culture Collection (ATCC, Manassas, Va.). SQ20B HNSCC cells (16) were a gift from Dr. Anjali Gupta (Department of Radiation Oncology, The University of Iowa). All HNSCC cell lines are EGFR positive and are sensitive to EGFR inhibitors. All cell lines were authenticated by the ATCC for viability (before freezing and after thawing), growth, morphology and isoenzymology. Cells were stored according to the supplier's instructions and used over a course of no more than 3 months after resuscitation of frozen aliquots. Cultures were maintained in 5% CO2 and air humidified in a 37° C. incubator.
as §1, §2
as §5, with “(20)” for “(16)”
as §3, with “The required volume of each drug was added directly to complete cell culture media on cells to achieve the indicated final concentrations.” left out

HNSCC tumor cell lines = settings: previous studies (ref. 10), cited from earlier work
Cal-27 cells = assay: TLR gene expression by RTPCR in Cal-27 cells; format: cell-based, human
Description: (§6) Total RNA was extracted from cells after indicated time points using RNeasy.Plus mini kit (Qiagen). Conversion of RNA into cDNA was accomplished with the iScript cDNA synthesis kit (Bio-Rad) and a thermocycler with the following conditions: 5 minutes at 25° C., 30 minutes at 42° C., and 5 minutes at 85° C. Subsequent RTPCR analysis was performed in a 96-well optical plate with each well containing 6 μL of cDNA, 7.5 μL of SyBr Green Universal SuperMix (Bio-Rad), and 1.5 μof oligonucleotide primers (sense and antisense; 4 μM) for a total reaction volume of 15 μL. Oligonucleotide primers for human genes were obtained from IDT (Iowa City, Iowa). RTPCR was performed on ABI PRISM Sequence Detection System (model 7000, Applied Biosystems) with the following protocol: 95° C. for 15 seconds (denaturing) and 60° C. for 60 seconds (annealing), repeated for 40 cycles. Threshold cycle (CT) values for analyzed genes (in duplicate) were normalized as compared to GAPDH (cell lines) or 18S (human samples) CT values. Relative abundance was calculated as 0.5̂(ΔCT), with OCT being the CT value of the analyzed gene minus the CT value of the reference gene (GAPDH or 18S).

SQ20B HNSCC cells [4] = assay: IL-1α release by ELISA in SQ20B cells; format: cell-based, human; settings: erlotinib 5 μM, indicated time points, ELISA
Description: as §1, §2, §3, §4

[5] = system: SQ20B and Cal-27 HNSCC cells; assay: IL-1β secretion by ELISA after erlotinib; format: cell-based, human; settings: erlotinib 5 μM, any time point
Description: as §1, with “TLR agonists were used at the following concentrations: Pam3CSK4 (200ng/mL), FSL-1 (100 ng/mL), Poly I:C (20 μg/mL), LPS (200 ng/mL), Flagellin (200 ng/mL), Gardiquimod (1 μg/mL), CL075 (1 μg/mL), and E. coli DNA (1 μg/mL). All TLR agonists were obtained from InvivoGen. The required volume of each drug was added directly to complete cell culture media on cells to achieve the indicated final concentrations.” left out
Levels of IL-6, IL-1α and IL-1β of treated cells were determined by ELISA. The culture media of the treated cells were harvested and each cytokine was detected according to the manufacturer's protocol using the Human Quantikine ELISA Kits (R&D Systems, Minneapolis, Minn.). […]
as §4

SQ20B cells = assay: TLR gene expression by RTPCR in SQ20B cells; format: cell-based, human
Description: as §6

Cal-27 HNSCC cells [6] = assay: IL-6 secretion by ELISA in Cal-27 cells; format: cell-based, human; settings: erlotinib 5 μM, 48 h vs DMSO, ELISA
Excerpt: as §5, §1, §2
as §5, with “(20)” for “(16)”
as §3, with “The required volume of each drug was added directly to complete cell culture media on cells to achieve the indicated final concentrations.” left out

SQ20B xenograft tumors = assay: HNSCC xenograft tumor growth in nude mice; format: in vivo, athymic nu/nu mice
Description: Male and female athymic-nu/nu mice (4-5 weeks old) were purchased from Harlan Laboratories (Indianapolis, Ind.). Mice were housed in a pathogen-free barrier room in the Animal Care Facility at the University of Iowa and handled using aseptic procedures. All procedures were approved by the IACUC committee of the University of Iowa and conformed to the guidelines established by the NIH. Mice were allowed at least 3 days to acclimate prior to beginning experimentation, and food and water were made freely available. Tumor cells were inoculated into nude mice by subcutaneous injection of 0.1 mL aliquots of saline containing 2×10^6 SQ20B cells into the right flank using 26-gauge needles.
Mice started drug treatment 1 week after tumor inoculation. For the MyD88 knockdown experiments, female mice were randomized into 2 treatment groups and orally administered either water or 12.5 mg/kg erlotinib (ERL) daily. For the IL-1α neutralization experiments, male and female mice were randomized into 4 treatment groups as follows. Control group: Mice were administered water orally daily and 1 mg/kg IgG i.p once per week. […] Mice were evaluated daily and tumor measurements taken three times per week using Vernier calipers. Tumor volumes were calculated using the formula: tumor volume=(length×width^2)/2 where the length was the longest dimension, and width was the dimension perpendicular to length. […]

[7] = ERL 5 μM 48 h, absolute levels very low

SMILES | genes related to inflammation and innate immunity [1] | IL-1α after erlotinib treatment over time (Cal-27 HNSCC cells [2]) | IL-1α after erlotinib treatment over time (Cal-27 HNSCC cells [2]; listed as ERL) | IL-6 production/secretion with erlotinib (SQ20B HNSCC cells [3]) | IL-6 expression/secretion in HNSCC cell lines treated with EGFRIs (HNSCC tumor cell lines) | IL-6 expression/secretion in HNSCC cell lines treated with EGFRIs (HNSCC tumor cell lines; listed as ERL) | TLR10 expression (Cal-27 cells; [7]) | TLR mRNA expression (Cal-27 cells; erlotinib) | IL-1α after erlotinib treatment over time (SQ20B HNSCC cells [4]) | IL-1α after erlotinib treatment over time (SQ20B HNSCC cells [4]; listed as ERL) | secreted IL-1β after erlotinib treatment [5] | secreted IL-1β after erlotinib treatment ([5]; listed as ERL) | TLR8 expression (SQ20B cells; [7]) | TLR mRNA expression (SQ20B cells; erlotinib) | IL-6 production/secretion with erlotinib (Cal-27 HNSCC cells [6]) | anti-tumor activity in vivo with IL-1α blockade (SQ20B xenograft tumors; EGFRI combined with IL-1α blockade (neutralizing IL-1α antibody)) | tumor growth of MyD88-deficient xenografts treated with erlotinib (SQ20B xenograft tumors; shMyD88 #2 and #9 vs erlotinib-treated control xenografts, 12.5 mg/kg orally daily, three weeks)
COc1cc2ncnc(Nc3cccc(Br)c3)c2cc1OC [PD153035] | upregulated |  |  |  |  |  |  |  |  |  |  |  |  |  |  |  | 
C#Cc1cccc(Nc2ncnc3cc(OCCOC)c(OCCOC)cc23)c1 [erlotinib, Erlotinib] |  | steadily increased across all time points | increased across all time points | increases IL-6 production | significant upregulation | induces the secretion of IL-6 | increased | did not affect | steadily increased across all time points | increased across all time points | undetectable; also recorded: unable to detect | not IL-1β was detectable | increased | did not affect | increases IL-6 production | significantly increased | reduced tumor growth
